Patent US20260199284A1, “SPECIFIC VASH COMPOUNDS (SVC) INHIBITORS FOR HEART DISEASES” (MT ACT, priority 2023, published 2026)
Entries after “also recorded” stand apart in the source; their conditions may differ.

Experiments:
[1] = test system: primary cardiomyocytes isolated from Sprague Dawley rats; experiment: Western blot of detyrosinated tubulin in primary cardiomyocytes; assay type: cell-based, rat
Method: A) Representative western blot and B) quantification of detyrosinated and alpha-tubulin levels after 2 hrs 37° C. incubation of freshly isolated adult rat cardiomyocytes with compound SVC_01 at indicated concentrations. N=4 Sprague Dawley rats.
Primary adult ventricular cardiac myocytes were isolated from 6 to 8 weeks old Sprague Dawley rats or 20 to 30 weeks old WKY, ZSF1 lean and obese rats. Briefly, the heart was removed from a rat anesthetized under isoflurane and retrograde-perfused on a Langendorff apparatus with a collagenase solution. The digested heart was then minced and triturated using a glass pipette. The resulting supernatant was separated and centrifuged at 300 revolution per minute (rpm) to isolate cardiomyocytes which were then resuspended in rat cardiomyocyte media at low density. Cardiomyocytes were cultured at 37° C. and 5% CO2 with 25 μmol/L of cytochalasin D. Rat cardiomyocyte media: medium 199 (Thermo Fisher 115090) supplemented with 1× Insulin-transferrin-selenium-X (Gibco 51500056), 1 μg μl^−1 primocin (Invivogen ant-pm-1), 20 mmol/L HEPES at pH 7.4 and 25 μmol/L cytochalasin D.
For whole cell protein extraction, isolated rat cardiomyocytes were lysed in RIPA buffer (Cayman #10010263) supplemented with protease and phosphatase Inhibitor cocktail (Cell Signaling #5872S) on ice for 1 hour. […] All samples were run in duplicates and analyzed in reference to GAPDH.

[2] = test system: ZSF-1 Obese cardiomyocyte; experiment: Immunofluorescence of detyrosinated and tyrosinated tubulin in ZSF1 cardiomyocytes; assay type: cell-based, rat; conditions: 2 hr 37 C incubation
Method: Cells were fixed in 4% PFA (Electron Microscopy Sciences) for 10 minutes, washed 3 times with PBS and permeabilized in 0.1% TritonX-100 for 10 minutes at room temperature. After washing twice with PBS, cells were placed in blocking buffer (1:1 Seablock (Abcam) and 0.1% TritonX-100 (Bio-Rad) in PBS) for at least 1 hour at room temperature, then labeled with primary antibodies (see below) for 24-48 hours at 4° C. Cells were then washed three times in TBS, then labeled with secondary antibodies (see below) in TBS at room temperature for 2-4 hours and washed a final two times with TBS. Stained cells were mounted on #1.5 coverslips in Prolong Diamond Antifade Mountant (Thermo Fisher) for imaging. Alternatively, cells were imaged directly in chambers with TBS. Imaging was carried out on a Zeiss 880 Airyscan confocal microscope operating on an Axiovert Z1 inverted microscope equipped with a Plan-Apochromat 63× oil 1.4 NA objective. Image analysis was performed using ZEN Black software for Airyscan processing, which involves signal integration from the 32 separate sub-resolution detectors in the Airyscan detector and subsequent deconvolution of this integrated signal.

[3] = test system: primary cardiomyocytes isolated from ZSF1-Lean or ZSF1 Obese rats; experiment: Nanoindentation transverse stiffness; assay type: cell-based, rat
From the text: FIG. 17: Reduced transverse stiffness upon VASH inhibition or TTL overexpression in primary cardiomyocytes isolated from ZSF1-Lean or ZSF1 Obese rats. A) Stiffness (elastic modulus) plotted as a function of nanoindentation velocity in ZSF1-Lean and B) ZSF1-Obese myocytes. C) Quantification of Emin (elastic stiffness), Emax (stiffness at maximal velocity of indentation) and D) DeltaE (indicator of viscoelasticity) in ZSF1-Lean and Obese cardiomyocytes.
Mechanical properties at the microscopic scale were measured using nano-indentation (Piuma; Optics11, Amsterdam, The Netherlands) equipped with a dynamic mechanical analysis package (DMA). Freshly isolated cardiomyocytes were attached to glass-bottom dishes coated with MyoTak (IonOptix) in NT solution at 1 mM Ca2+. A spherical indentation probe with a radius of 4.5 μm and a stiffness of 0.1 N/m was used to indent the myocytes to a depth of 1-2 μm and the probe was then oscillated in a sinusoidal pattern at a frequency of 0.05, 0.1, 0.5, 1, 2, 5, 10, 20 and 50 Hz and an amplitude of 1 μm. The Piuma Data Viewer version 2.0 was used to convert DMA indentation depth and cantilever deflection into E′ and E″ and the magnitude of the elastic modulus was determined by E^2=E′^2+E″^2 A Poisson's ratio (n) of 0.5 was assumed and the average of E in each experimental condition was determined as a function of indentation speed. […]

ZSF1 obese rats = experiment: Echocardiography and invasive hemodynamics in HFpEF rats; assay type: in vivo, rat
From the text: FIG. 21: VASHi acutely improves diastolic function in HFpEF rats. A) Echocardiographic assessments of left ventricular diastolic function in ZSF1 Lean and Obese animals+/−SVC_02 treatment. Improved E/A ratio (marker of the function of the left ventricle of the heart) and mitral valve deceleration time indicate improved diastolic function and faster ventricular relaxation upon VASH inhibition in ZSF1 obese rats. B) Hemodynamic measurements of left ventricular diastolic function in ZSF1 Lean and Obese animals+/−SVC_02 treatment. Improved tau (left ventricular diastolic time constant) and dP/dTmin (rate of ventricular relaxation) indicate more rapid ventricular relaxation upon VASH inhibition in ZSF1 obese rats.
Echocardiography measurements were acquired Vevo2100 Ultrasound System (VisualSonics Inc., Toronto, Ontario, Canada) with a MS250 (13-24 MHz) transducer. Animals were sedated with inhaled isoflurane (2-3%). Parasternal long axis, parasternal short axis, apical four chamber, and apical two chamber views were acquired to assess cardiac structure and function. Diastology was assessed using pulse wave and tissue doppler imaging. The protocol used was based on recommendations from the European Society of Cardiology Working Group on Myocardial Function (Zacchigna S et al. 2021).
Animals were induced with isoflurane (5%) before being intubated and mechanically supported. Anesthesia plane was maintained using isoflurane (2-3%). A 2-French pressure-conductance catheter (Transonic Systems Inc., Ithaca, New York, USA) was calibrated using echo derived left ventricular volumes. The right common carotid artery was then dissected, and the catheter was advanced in a retrograde fashion into the left ventricle as previously described. Data were acquired using PowerLab and LabChart Pro (ADInstruments) and analyzed offline using LabChart Pro (ADInstruments).

## O=C(O)CCC[C@H](NC(=O)[C@H]1O[C@@H]1C(=O)C[C@@H](Cc1ccc(OCc2ccccc2)cc1)C(=O)O)C(=O)NCCc1ccccc1 [SVC_01]
[1]; 2 hours incubation, Sprague Dawley rat cardiomyocytes
  reduction of tubulin detyrosination: ~80%
[1]; 2 hrs 37° C., indicated concentrations
  reduction in detyrosination: Dose-dependent reduction in detyrosination
[2]
  detyrosinated tubulin in ZSF1 cardiomyocytes: virtual elimination of detyrosinated microtubule; also recorded: significant reduction of tubulin detyrosination
  tyrosinated microtubule network: maintained tyrosinated microtubule network
[3]
  transverse viscoelastic stiffness: viscoelastic stiffness is reduced
Human cells
  cell viability / proliferation (MTT): does not impact cell proliferation

## CCOC(=O)[C@H](Cc1ccc(OCC)cc1)NC(=O)[C@H]1O[C@@H]1C(=O)N[C@@H](Cc1ccc(OCC)cc1)C(=O)OCC [SVC_02]
ZSF1 obese rats; echocardiography
  E/A ratio: Improved
  mitral valve deceleration time: Improved
ZSF1 obese rats; hemodynamics
  dP/dTmin (rate of ventricular relaxation): Improved
  tau (left ventricular diastolic time constant): Improved
